Numbered stars: 1 amine (or outer) side, 2 acyl side, 3 side chain; on linkers, the order of the positions; unused ones are H or OH. Bridge positions count the residues as written; N and C are the ends. Square brackets hold non-standard residues; d marks the D form. Peptide text beside a SMILES is read from it. * marks the point of attachment. ξ: configuration not given here. Tyr(3-NO2) = N[C@@H](Cc1ccc(O)c([N+](=O)[O-])c1)C(=O)O; Phe(3-CF3) = N[C@@H](Cc1cccc(C(F)(F)F)c1)C(=O)O; Phe(4-COOH) = N[C@@H](Cc1ccc(C(=O)O)cc1)C(=O)O; X23 = O=C([C@H](Cc1cc2ccccc2cn1)N[*:1])[*:2]; Bip = N[C@@H](Cc1ccc(-c2ccccc2)cc1)C(=O)O; Tyr(3-I) = N[C@@H](Cc1ccc(O)c(I)c1)C(=O)O; Phe(3-OMe) = COc1cccc(C[C@H](N)C(=O)O)c1; Phe(3-Me) = Cc1cccc(C[C@H](N)C(=O)O)c1; Phe(4-I) = N[C@@H](Cc1ccc(I)cc1)C(=O)O; Val(3-OH) = CC(C)(O)[C@H](N)C(=O)O; 4Pal = N[C@@H](Cc1ccncc1)C(=O)O; Cha = N[C@@H](CC1CCCCC1)C(=O)O; Cit = NC(=O)NCCC[C@H](N)C(=O)O; Thr(3ξ) = CC(O)[C@H](N)C(=O)O; Carboxymethyl = O=C(O)C*; NMeA = CN[C@@H](C)C(=O)O; Dab = NCC[C@H](N)C(=O)O; Dap = NC[C@H](N)C(=O)O; Piv = CC(C)(C)C(=O)*

In this assay the target is T1, PE-labeled human PD-L1-Ig binding to Jurkat cell line over-expressing human PD-1 (Jurkat-PD-1) (Homo sapiens, UniProt Q15116).
T1 construct: expressed in transfected cells; host or cells: Jurkat
T1 sequence (Q15116 25-288): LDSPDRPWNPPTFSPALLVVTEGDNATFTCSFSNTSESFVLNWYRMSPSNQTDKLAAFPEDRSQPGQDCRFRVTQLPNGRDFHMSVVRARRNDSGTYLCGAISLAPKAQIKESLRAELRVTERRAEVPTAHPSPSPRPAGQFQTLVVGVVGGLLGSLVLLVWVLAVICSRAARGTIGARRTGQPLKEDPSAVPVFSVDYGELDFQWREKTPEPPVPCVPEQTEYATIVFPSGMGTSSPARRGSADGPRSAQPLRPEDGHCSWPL
The assay is described as follows: Jurkat-PD-1 Cell Binding High-Content Screening Assay (CBA): Method 1. As to conditions: Jurkat-hPD-1 cells, PE-labeled PD-L1-Ig 20 nM final; read-out: Jurkat HPDL1 PD1 IC50 (uM) (Method 1).
For `CC(C)C[C@@H]1NC(=O)[C@H](CCCNC(=N)N)NC(=O)[C@@H](CC(C)C)NC(=O)[C@H](C)N(C)C(=O)[C@H](CCCNC(=N)N)NC(=O)[C@H](Cc2ccc(I)cc2)NC(=O)[C@H](C(C)C)NC(=O)[C@H](Cc2c[nH]c3ccccc23)NC(=O)[C@H](CC(=O)O)NC(=O)[C@H](Cc2ccc(O)cc2)NC(=O)[C@H](Cc2ccccc2)NC(=O)CSC[C@@H](C(=O)N[C@@H](C)C(N)=O)NC(=O)[C@H]([C@@H](C)O)NC(=O)[C@H](C(C)C)NC1=O` [Compound 1089] ({CH2CO}-FYDWV[Phe(4-I)]R[NMeA][dL]RLVTCA-NH2; thioether N-14), the IC50 worked out at 0.94 µM.
As for `CC(C)C[C@H]1NC(=O)[C@H](C)N(C)C(=O)[C@H](C(C)C)NC(=O)[C@H](Cc2ccc(-c3ccccc3)cc2)NC(=O)[C@H](C(C)C)NC(=O)[C@H](Cc2c[nH]c3ccccc23)NC(=O)[C@H](CC(=O)O)NC(=O)[C@H](Cc2ccc(O)cc2)NC(=O)[C@H](CN)NC(=O)CSC[C@@H](C(=O)N[C@@H](C)C(N)=O)NC(=O)[C@H]([C@@H](C)O)NC(=O)[C@H](C(C)C)NC(=O)[C@H](CC2CCCCC2)NC(=O)[C@H](CCN)NC1=O` [Compound 1506] ({CH2CO}-[Dap]YDWV[Bip]V[NMeA][dL][Dab][Cha]VTCA-NH2; thioether N-14), the figure is 0.02 µM; as for `Cc1cccc(C[C@@H]2NC(=O)[C@H](CC(=O)O)NC(=O)[C@H](Cc3ccc(OCC(=O)O)cc3)NC(=O)[C@H](Cc3ccncc3)NC(=O)CSC[C@@H](C(=O)N[C@@H](CCNC(=O)C(C)(C)C)C(N)=O)NC(=O)[C@H](Cc3cnc[nH]3)NC(=O)[C@H](C(C)(C)O)NC(=O)[C@H](CC3CCCCC3)NC(=O)[C@H](CCN)NC(=O)[C@@H](CC(C)C)NC(=O)[C@H](C)N(C)C(=O)[C@H](Cc3ccc(OCC(=O)O)cc3)NC(=O)[C@H](Cc3ccc(-c4ccccc4)cc3)NC(=O)[C@H](Cc3ccc(C(=O)O)cc3)NC2=O)c1` [Compound 2165] ({CH2CO}-[4Pal]Y(Carboxymethyl)D[Phe(3-Me)][Phe(4-COOH)][Bip]Y(Carboxymethyl)[NMeA][dL][Dab][Cha][Val(3-OH)]HC[Dab](Piv)-NH2; thioether N-14), 0.04 µM; as for `CC(C)C[C@@H]1NC(=O)[C@H](CCCNC(=N)N)NC(=O)[C@@H](Cc2ccccc2)NC(=O)[C@H](C)N(C)C(=O)[C@H](CCCNC(=N)N)NC(=O)[C@H](Cc2ccc(-c3ccccc3)cc2)NC(=O)[C@H](C(C)C)NC(=O)[C@H](Cc2c[nH]c3ccccc23)NC(=O)[C@H](CC(=O)O)NC(=O)[C@H](Cc2ccc(O)c([N+](=O)[O-])c2)NC(=O)[C@H](CC(N)=O)NC(=O)CSC[C@@H](C(=O)N[C@@H](C)C(N)=O)NC(=O)[C@H]([C@@H](C)O)NC(=O)[C@H](C(C)C)NC1=O` [Compound 1167] ({CH2CO}-N[Tyr(3-NO2)]DWV[Bip]R[NMeA][dF]RLVTCA-NH2; thioether N-14), 0.1 µM.
As for `CC(C)C[C@@H]1NC(=O)[C@H](Cc2c[nH]c3ccccc23)NC(=O)[C@H](CC(=O)O)NC(=O)[C@H](Cc2ccncc2)NC(=O)[C@H](CN)NC(=O)CSC[C@@H](C(=O)NCC(N)=O)NC[C@H](CO)NC(=O)[C@H](C(C)C)NC(=O)[C@H](CC2CCCCC2)NC(=O)[C@H](CC(N)=O)NC(=O)[C@@H](CC(C)C)NC(=O)[C@H](C)N(C)C(=O)[C@H](C(C)C)NC(=O)[C@H](Cc2ccc(-c3ccccc3)cc2)NC1=O` [Compound 1625], the figure is 0.01 µM; as for `COc1cccc(C[C@@H]2NC(=O)[C@H](CC(=O)O)NC(=O)[C@H](Cc3ccc(C(=O)O)cc3)NC(=O)[C@H](CN)NC(=O)CSC[C@@H](C(=O)N[C@@H](C)C(N)=O)NC(=O)[C@H]([C@@H](C)O)NC(=O)[C@H](C(C)C)NC(=O)[C@H](CC(C)C)NC(=O)[C@H](CCN)NC(=O)[C@@H](CC(C)C)NC(=O)[C@H](C)N(C)C(=O)[C@H](CCCNC(=N)N)NC(=O)[C@H](Cc3ccc(-c4ccccc4)cc3)NC(=O)[C@H](C(C)C)NC2=O)c1` [Compound 1460] ({CH2CO}-[Dap][Phe(4-COOH)]D[Phe(3-OMe)]V[Bip]R[NMeA][dL][Dab]LVTCA-NH2; thioether N-14), 0.02 µM; as for `CC(C)C[C@@H]1NC(=O)[C@H](CCCNC(=N)N)NC(=O)[C@@H](CC(C)C)NC(=O)[C@H](C)N(C)C(=O)[C@H](C(C)C)NC(=O)[C@H](Cc2ccc(-c3ccccc3)cc2)NC(=O)[C@H](C(C)C)NC(=O)[C@H](Cc2cccc(C(F)(F)F)c2)NC(=O)[C@H](CC(=O)O)NC(=O)[C@H](Cc2ccc(O)cc2)NC(=O)[C@H](CC(N)=O)NC(=O)CSC[C@@H](C(=O)N[C@@H](C)C(N)=O)NC(=O)[C@H]([C@@H](C)O)NC(=O)[C@H](C(C)C)NC1=O` [Compound 1291] ({CH2CO}-NYD[Phe(3-CF3)]V[Bip]V[NMeA][dL]RLVTCA-NH2; thioether N-14), 0.02 µM.
To `CC(C)C[C@@H]1NC(=O)[C@H](CCN)NC(=O)[C@@H](CC(C)C)NC(=O)[C@H](C)N(C)C(=O)[C@H](C(C)C)NC(=O)[C@H](Cc2ccc(-c3ccccc3)cc2)NC(=O)[C@H](C(C)C)NC(=O)[C@H](Cc2cccc(C(F)(F)F)c2)NC(=O)[C@H](CC(=O)O)NC(=O)[C@H](Cc2ccc(O)cc2)NC(=O)[C@H](CC(N)=O)NC(=O)CSC[C@@H](C(=O)N[C@@H](C)C(N)=O)NC(=O)[C@H]([C@@H](C)O)NC(=O)[C@H](C(C)C)NC1=O` [Compound 1290] ({CH2CO}-NYD[Phe(3-CF3)]V[Bip]V[NMeA][dL][Dab]LVTCA-NH2; thioether N-14) belongs 0.01 µM.
In the case of `CC(C)C[C@@H]1NC(=O)[C@H](CCCCN)NC(=O)[C@@H](CC(C)C)NC(=O)[C@H](C)N(C)C(=O)[C@H](Cc2cnc[nH]2)NC(=O)[C@H](Cc2ccc(-c3ccccc3)cc2)NC(=O)[C@H](C(C)C)NC(=O)[C@H](Cc2c[nH]c3ccccc23)NC(=O)[C@H](CC(=O)O)NC(=O)[C@H](Cc2ccc(O)cc2)NC(=O)[C@H](CC(N)=O)NC(=O)CSC[C@@H](C(=O)NCC(N)=O)NC(=O)[C@H](CO)NC(=O)[C@H](C(C)C)NC1=O` [Compound 1483] ({CH2CO}-NYDWV[Bip]H[NMeA][dL]KLVSCG-NH2; thioether N-14), the IC50 was 0.06 µM.
With `CC(C)C[C@@H]1NC(=O)[C@H](CCN)NC(=O)[C@@H](CC(C)C)NC(=O)[C@H](C)N(C)C(=O)[C@H](CCCNC(N)=O)NC(=O)[C@H](Cc2ccc(-c3ccccc3)cc2)NC(=O)[C@H](C(C)C)NC(=O)[C@H](Cc2c[nH]c3ccccc23)NC(=O)[C@H](CC(=O)O)NC(=O)[C@H](Cc2ccc(O)cc2)NC(=O)[C@H](Cc2cc3ccccc3cn2)NC(=O)CSC[C@@H](C(=O)N[C@@H](C)C(N)=O)NC(=O)[C@H](C(C)O)NC(=O)[C@H](C(C)C)NC1=O` (stereo partly drawn) [Compound 2035] ({CH2CO}-[X23]YDWV[Bip][Cit][NMeA][dL][Dab]LV[Thr(3ξ)]CA-NH2; thioether N-14), the IC50 came to 0.04 µM.
To `CC(C)C[C@@H]1NC(=O)[C@H](CCCNC(=N)N)NC(=O)[C@@H](CC(C)C)NC(=O)[C@H](C)N(C)C(=O)[C@H](CCCNC(=N)N)NC(=O)[C@H](Cc2ccc(-c3ccccc3)cc2)NC(=O)[C@H](C(C)C)NC(=O)[C@H](Cc2c[nH]c3ccccc23)NC(=O)[C@H](CC(=O)O)NC(=O)[C@H](Cc2ccc(O)c(I)c2)NC(=O)[C@H](Cc2ccccc2)NC(=O)CSC[C@@H](C(=O)N[C@@H](C)C(N)=O)NC(=O)[C@H]([C@@H](C)O)NC(=O)[C@H](C(C)C)NC1=O` [Compound 1109] ({CH2CO}-F[Tyr(3-I)]DWV[Bip]R[NMeA][dL]RLVTCA-NH2; thioether N-14) belongs 0.12 µM.

These data come from patent US20240409585A1, “MACROCYCLIC IMMUNOMODULATORS” (priority 2021, published 2024).
